Assay type in all cases: cell-based
One test concerns Streptococcus pyrogenes. The experiment in a line: Inhibition zone assay of PR-peptide on different bacteria. As for the experimental part: (§1) The antibacterial activity of the polypeptide of this invention was determined by inhibition zone assay as described by Hultmark et al. (Hultmark, D., Engstrom, A., Anderson, K., Steiner, H., Bennich, H. and Boman, H. G. (1983). Insect immunity. Attacins, a family of antibacterial proteins from Hyalophora cecropia. EMBO J. 2, 571-576).
(§2) Log-phase bacteria were grown to a density of 100 units on a Klett-summerson photoelectric colorimeter. They were diluted 50 times with LB medium and 50 μl of the bacteria suspension was mixed with 6 ml of 1.0% agarose in LB medium (w/v) and poured on the petri dishes (Falcon 1001 Optilux) with inner diameter 8.65 cm. For E. coli this procedure will give about 2×10^5 bacteria per plate.
(§3) The plates were left for 1 hour at room temperature, and holes with 3 mm diameter were made on the solidified agarose. 100 μl of fractions were dried in a speedvac and dissolved in 10 μl H2 O, of which 3 μl was applied to the holes. After 30 min diffusion time the plates were incubated at 30° C. overnight. The diameter of the inhibition zones were measured and the relative unit activity was calculated from a standard curve which was constructed on varying amount of Cecropin A versus activity. One microgram of Cecropin A corresponds to 1000 units of activity.
(§4) The maximum concentration of PR-peptide was 2,5 mM and 3 μl was applied to each well in thin agarose plates seeded with test bacterium. LV values are obtained from a dilution serie and is the lowest concentration giving killing (Muirmark, D., Engstrem, A., Anderson, K., Steiner, H., Bennich, H. and Boman, H. G. (1983))

Test [1] has as its system Salmonella typhimurium L12. Described as above. To be noted: strain L12. Here is the method:
as §1, §2, §3, §4

The next test deals with Escherichia coli K12 D21. The description is as above. To be noted: strain D21. Here is the method:
as §1, §2, §3, §4

In a further test the test system is Bacillus megaterium Bm11. Described as above. The following applies: strain Bm11. Here is the method:
as §1, §2, §3, §4

For test [2], the system named is Staphylococcus aureus Cowan 1. The description is as above. The following applies: strain Cowan 1. Here is the method:
as §1, §2, §3, §4

In test [3] the test system is Escherichia coli Bd2221/75. The description is as above. To be noted: strain Bd2221/75. Here is the method:
as §1, §2, §3, §4

The next test has as its system Bacillus subtilis Bs11. The test is described as above. To be noted: strain Bs11. Here is the method:
as §1, §2, §3, §4

Test [4] has as its system Acinetobacter calcoaceticus Ac11. Described as above. To be noted: strain Ac11. Here is the method:
as §1, §2, §3, §4

Test [5] relates to Pseudomones aeruginose OT97. Described as above. The following applies: strain OT97. As for the experimental part: as §1, §2, §3, §4
Another test relates to Proteus vulgaris Pv11. The description is as above. To be noted: strain Pv11. As for the experimental part:
as §1, §2, §3, §4

The test system of the next test is Bacillus megaterium. The experiment in a line: Inhibition zone assay repeated with Bacillus megaterium (Example 4). To be noted: times higher than in relation to E. coli. As for the experimental part:
as §1, §2
The plates were left for 1 hour at room temperature, and holes with 3 mm diameter were made on the solidified agarose. 100 μl of fractions were dried in a speedvac and dissolved in 10 μl H2 O, of which 3 μl was applied to the holes. After 30 min diffusion time the plates were incubated at 30° C. overnight. The diameter of the inhibition zones were measured and the relative unit activity was calculated from a standard curve which was constructed on varying amount of Cecropin A versus activity. One microgram of Cecropin A corresponds to 1000 units of activity. […]

The mark [6] stands for this setting: lowest concentration giving killing, from dilution series.
[7] abbreviates: maximum concentration 2,5 mM, 3 μl per well, thin agarose plates.

No end group written: not given here.

“RRRPRPPYLPRPRPPPFFPPRLPPRIPPGFPPRFPPRFP [PR-peptide, bactericidal polypeptide isolated from pig small intestine]”: the LC value in the test on Streptococcus pyrogenes (setting [6]) is 2 µM; in test [1] (setting [6]), 1 µM; in the test with Escherichia coli K12 D21 (setting [6]), 0,3 μM; in the test with Bacillus megaterium Bm11 (setting [6]), 0,3 μM; in test [2] (setting [6]), 200 µM; in test [3] (setting [6]), 0,3 μM. Also, the LC value with Bacillus subtilis Bs11 (setting [6]) is 15 µM; in test [4] (setting [6]), 3 µM; in test [5] (setting [6]) it was 200 µM; in the test with Proteus vulgaris Pv11 (setting [6]), 300 µM. Also, the Max zone was 14,9 mm in the test on Streptococcus pyrogenes (setting [7]); 15,2 mm in test [1] (setting [7]); 18,3 mm in the test on Escherichia coli K12 D21 (setting [7]); 17,4 mm in the test on Bacillus megaterium Bm11 (setting [7]); 3,7 mm in [2] (setting [7]); 17,6 mm in test [3] (setting [7]). The Max zone was 10,3 mm with Bacillus subtilis Bs11 (setting [7]), 12,5 mm in test [4] (setting [7]), 4,5 mm in test [5] (setting [7]) and 3,5 mm with Proteus vulgaris Pv11 (setting [7]). Also, the “average activity against Bacillus megaterium relative to E. coli” value with Bacillus megaterium is listed as “about 3 times”.
